Read-outs that look alike come from different tables or passages of the source.
What was measured:
[1] = system: Caco-2 cell monolayers; assay type: in vitro ADME, human
Description: (§1) Caco-2 cells were purchased from DS Pharma (Osaka, Japan). The cells (passage 20–27) were cultured in E-MEM containing 10% (v/v) FBS, 1% (v/v) MEM-NEAA, and 1% (v/v) PS. The cells were incubated at 37°C in an atmosphere of 5% CO2 under 95% relative humidity. When the cells reached 80–90% confluence, they were passaged at a density of 1.0 × 10^5 cells onto a 12-well Transwell Permeable Support (0.4-μm pore polyester membrane insert, Corning, NY, USA). The cells were cultured for 19–21 days to obtain a monolayer. The culture medium (0.6 ml in the apical side and 1.5 ml in the basolateral side) was replaced every 1–2 days. The integrity of the Caco-2 cell monolayer was evaluated by measuring transepithelial electrical resistance (TEER) using a Millicell-ERS-2 system (Merck, Darmstadt, Germany). Only cell monolayers with final TEER values above 700 Ω · cm^2, indicative of high barrier integrity, were used for the transport assays.
(§2) Caco-2 cells monolayers were preincubated in HBSS for 30 min at 37°C. Subsequently, 0.6 ml of 0.5 mg/ml Abi and Ahe and 1.5 ml of HBSS to the apical and basolateral sides, respectively. After incubation for 0, 1, 2, and 3 h, the supernatant was collected from the basolateral side. To identify the transport mechanisms, Caco-2 cell monolayers were preincubated with sodium azide (1 mM), colchicine (1 mM), or cytochalasin B (5 μg/ml) dissolved in HBSS with 0.1% DMSO for 30 min, followed by the incubation of 0.5 mg/ml Abi and Ahe for 2 h. To remove salt, the collected supernatant was applied to the graphitized carbon solid-phase extraction (GC-SPE) using InertSep GC (200 mg/3 ml) (GL Sciences Inc., Tokyo, Japan), according to the method described by Ninonuevo et al. ([12]). The SPE cartridge was first equilibrated with 6 ml of 80% acetonitrile in 0.1% acetic acid (v/v), followed by 3 ml of DW. The basal solution was dissolved in DW to 3 ml and loaded onto the cartridge. The salts were removed by washing with 6 ml of DW, and Abi or Ahe was eluted with 3 ml of 20% acetonitrile. After ABEE derivatization, the collected solution was evaporated to dryness and subjected to LC-MS. The apparent permeability coefficients (Papp) were calculated ([13]) as Papp = (dQ/dt) × (1/AC0), where dQ/dt is the permeation rate (μg/s), A is the area of the monolayer of Caco-2 cells (cm^2), and C0 is the initial concentration of Abi or Ahe in the apical chamber (μg/ml).

[2] = system: Caco-2 cell monolayers; assay: Transepithelial permeation route analysis with transport inhibitors in Caco-2 cell monolayers; conditions: for effect of sodium azide on transport rate: 1 mM sodium azide preincubated 30 min, then 2 h incubation; for effect of cytochalasin B on transepithelial permeability: Caco-2; for effect on TEER value of Caco-2 cell monolayers: inhibitor in apical chamber (sodium azide 1 mM, colchicine 1 mM, cytochalasin B 5 μg/ml), TEER after 2 h
Description: as §1, §2
The effects of various inhibitors on the transepithelial absorption through Caco-2 cell monolayers were examined to identify the transport routes of Abi and Ahe. We used 1 mM sodium azide and 1 mM colchicine as an electron-transport-chain inhibitor and a transcytosis inhibitor, respectively, to determine whether an energy-dependent pathway is involved. […] Next, we used cytochalasin B as a tight junction disruptor to investigate the involvement of the paracellular pathway in the transepithelial permeation of Abi and Ahe. Cytochalasin B increases the paracellular permeability by affecting the tight junction structure through the myosin light chain kinase activation ([14]).

[3] = system: Caco-2 cell monolayers; assay type: in vitro ADME, human; remark: listed apart in the source
Description: The correlation between TEER and permeation rate was examined to confirm the occurrence of Abi and Ahe transport via the paracellular pathway by using the LY fluorescent stain for comparison. Thus, Abi, Ahe, and LY were added to the apical chamber with or without cytochalasin B. The basal chamber solution was collected, and the TEER was measured every 1 h for 3 h, thereby quantifying Abi, Ahe, and LY in the basal chamber. The TEER and quantified values are plotted as a scatter plot in Figure 6.

[4] = rat, in vivo, po
Description: To prepare the standard curve samples of AOSs, the AOSs were labeled with ABEE using an ABEE labeling kit (J-Chemical, Tokyo, Japan) according to the method developed by Yasuno et al. ([11]). The reaction was performed according to the instructions provided by the manufacturer. Briefly, 40 μl of the ABEE reagent solution was added to 10 μl of the solution of AOSs and the mixture was vortexed and incubated at 80°C for 1 h. After cooling to 15–20°C, 200 μl of DW and an equal volume of chloroform were added, and the mixture was then vortexed and centrifuged for 1 min. The upper layer was filtered through a polytetrafluoroethylene membrane (4 mm diameter, 0.45-μm pore size; Membrane Solutions Limited, Plano, TX, USA) and subjected to LC-MS.
For the HPLC measurements, an LC-20AD pump (Shimadzu) fitted with a DGU-20A 5R degassing unit (Shimadzu) was used. The analytes were injected using a SIL-20AC autosampler (Shimadzu). In addition, a CTO-20AC column oven (Shimadzu) was used, and entire equipment was controlled using a CBM-20A unit (Shimadzu). The samples were separated on a Shim-pack VP-ODS (150 × 2.0 mm, 4.6 μm; Shimadzu) combined with a Shim-pack GVP-ODS guard column (2.0 mm i.d. × 5 mm, 4.6 μm; Shimadzu). The mobile phase consisted of acetic acid (0.1%) in water (A) and acetic acid (0.1%) in acetonitrile (B). The gradient conditions were as follows: 0–30 min, 9%−13% B; 30–45 min, 80% B; 45–60 min, 9% B. The flow rate was 0.2 ml/min. The column oven temperature was set at 60°C, and the autosampler temperature was 10°C.
The detection was performed using an LCMS-2020 (Shimadzu) ESI-MS device. The analytes were identified and quantified by selected ion monitoring in the positive-ion mode. The MS conditions were as follows: interface temperature, 350°C; desolvation line (DL) temperature, 250°C; heat block temperature, 200°C; nebulizer gas flow, 1.5 L/min; drying gas flow, 15 L/min; interface voltage, 4.5 kV; DL voltage, 0 kV.
Fifteen female Sprague–Dawley rats, aged 7 weeks, were purchased from Charles River Laboratories Japan (Kanagawa, Japan). The rats were acclimatized to standard laboratory conditions (20–25°C, 40%−70% humidity, and 12 h light/dark cycle) for 1 week.
After a fasting period of 12 h, 2 ml of phosphate-buffered saline (pH 7.4) containing 0%, 10%, or 50% AOSs was orally administered to five rats from each group (220–250 g body weight) using feeding gavages. The AOSs comprised 30.2, 29.1, and 31.6% of Abi, Ate, and Ahe, respectively. Blood (100 μl) was collected before and after 1, 2, 4, 8, and 24 h of oral administration from the tail vein using 10,000 U heparin-coated syringes (1 ml) with a 26G × 1/2 ” needle. The blood samples were centrifuged at 1,000 g for 10 min, and the supernatants were collected. Acetonitrile was added to the plasma samples at a final concentration of 60%. The samples were vigorously vortexed and centrifuged at 6,000 g for 5 min; the supernatants were collected and evaporated to dryness. Subsequently, the dried samples were dissolved in 10 μl of DW and subjected to ABEE derivatization before LC-MS analysis. The area under the curve (AUC) of plasma concentration was calculated using the trapezoid formula.

[5] = system: peritoneal macrophages; set-up: method as in PMID 22791164; conditions: oral administration to mice, 3% AOSs containing water for 3 weeks; cited from earlier work
[6] = set-up: method as in PMID 20378994; conditions: cited from earlier work

Molecule	Pearson correlation coefficient value between TEER and amount permeated [3]	AUC ([4]; 1 g/kg) [ng·h/mL]	Cmax ([4]; 1 g/kg) [ng/mL]	Tmax ([4]; 1 g/kg) [h]	AUC ([4]; 5 g/kg) [ng·h/mL]	Cmax ([4]; 5 g/kg) [ng/mL]	Tmax ([4]; 5 g/kg) [h]	effect on TEER value of Caco-2 cell monolayers [2]	further results
OC[C@H]1O[C@@H](O[C@H]2[C@H]3OC[C@@H]2OC(O)[C@H]3O)[C@H](O)[C@@H](O)[C@H]1O (mixture of isomers) [Abi, agarobiose]	−0.832	620 ± 180	76.4 ± 36.7	4	2560 ± 810	439.8 ± 182.6	4		Papp [1]: 0.41 ± 0.03 10^−6 cm/s; percentage permeated [1]: 0.27 ± 0.02 %/h; effect of sodium azide on transport rate [2]: did not have any significant effect; effect of cytochalasin B on transepithelial permeability [2]: increased; nitric oxide (NO) production on stimulated peritoneal macrophages [5]: suppression
OC[C@H]1O[C@@H](O[C@H]2[C@H]3OC[C@@H]2O[C@@H](O[C@H]2[C@@H](O)[C@@H](CO)O[C@@H](O[C@H]4[C@H]5OC[C@@H]4O[C@@H](O[C@H]4[C@@H](O)[C@@H](CO)O[C@@H](O[C@H]6[C@H]7OC[C@@H]6OC(O)[C@H]7O)[C@@H]4O)[C@H]5O)[C@@H]2O)[C@H]3O)[C@H](O)[C@@H](O)[C@H]1O (mixture of isomers) [Ahe, agarohexaose]	−0.814	290 ± 270	42.1 ± 37.1	4	460 ± 250	107.8 ± 55.0	4		Papp [1]: 0.21 ± 0.01 10^−6 cm/s; percentage permeated [1]: 0.14 ± 0.01 %/h; effect of sodium azide on transport rate [2]: did not have any significant effect; effect of cytochalasin B on transepithelial permeability [2]: increased
OC[C@H]1O[C@@H](O[C@H]2[C@H]3OC[C@@H]2O[C@@H](O[C@H]2[C@@H](O)[C@@H](CO)O[C@@H](O[C@H]4[C@H]5OC[C@@H]4O[C@@H](O)[C@H]5O)[C@@H]2O)[C@H]3O)[C@H](O)[C@@H](O)[C@H]1O [Ate, agarotetraose]		390 ± 170	58.9 ± 37.6	4	1390 ± 450	239.5 ± 98.2	4		nitric oxide (NO) production on stimulated peritoneal macrophages [5]: suppression
COc1cc2c(c(OC)c1OC)-c1ccc(OC)c(=O)cc1[C@@H](NC(C)=O)CC2 [colchicine, reference compound]								did not have any significant effect	
C=C1[C@@H](C)[C@H]2[C@H](Cc3ccccc3)NC(=O)[C@]23OC(=O)/C=C/[C@H](O)CCC[C@@H](C)C/C=C/[C@H]3[C@@H]1O [cytochalasin B, reference compound]								significantly decreased	
OC[C@H]1O[C@@H](O)[C@H](O)[C@@H](O[C@@H]2O[C@H]3CO[C@@H]([C@@H]2O)[C@@H]3O[C@@H]2O[C@H](CO)[C@H](O)[C@H](O[C@@H]3O[C@H]4CO[C@@H]([C@@H]3O)[C@@H]4O[C@@H]3O[C@H](CO)[C@H](O)[C@H](O[C@@H]4O[C@H]5CO[C@@H]([C@@H]4O)[C@@H]5O)[C@H]3O)[C@H]2O)[C@H]1O [neoagarohexaose]									anti-inflammatory activity [6]: no anti-inflammatory activity
[N-]=[N+]=[N-].[Na+] [sodium azide, reference compound]								did not have any significant effect	
Lucifer yellow CH dilithium salt [LY, reference compound]	−0.779								

Reference: article PMC9525106, “Intestinal permeability of agaro-oligosaccharides: Transport across Caco-2 cell monolayers and pharmacokinetics in rats” (Frontiers in Nutrition, 2022)
